Source: patent US4962109A, “Insecticidally and acaricidally active pyrimidine esters and intermediates therefor” (Imperial Chemical Industries PLC, priority 1985, dated 1990)

Columns and labels:
Format in all cases: in vivo
[1] = test system: Diabrotica balteata (rootworm larvae); assay: Residual test on rootworm larvae (DB), Filter paper/maize seed, mortality; settings: 48 h, 500 ppm, residual, 2 days, read-out: DB grading of mortality
Experimental: (§1) The activity of the Product was determined using a variety of insect pests. The Product was used in the form of liquid preparations containing 500, 250 or 100 parts per million (ppm) by weight of the Product. The preparations were made by dissolving the Product in acetone and diluting the solutions with water containing 0.01% by weight of a wetting agent sold under the trade name "LISSAPOL" NX until the liquid preparations contained the required concentration of the Product. "Lissapol" is a Registered Trade Mark.
(§2) The test procedure adopted with regard to each pest was basically the same and comprised supporting a number of the pests on a medium which was usually a host plant or a foodstuff on which the pests feed, and treating either or both the pests and the medium with the preparations. The mortality of the pests was then assessed at periods usually varying from one to three days after the treatment.
(§3) The results of the tests are given in Table III for each of the Products, at the rate in parts per million given in the second column as a grading of mortality designated as A, B or C wherein A indicates 80-100% mortality or knockdown, B indicates 50-79% mortality or knockdown and C indicates less than 50% mortality or knockdown.

[2] = test system: Tetranychus urticae (spider mites - adult); assay: Contact test on spider mites - adult (TUa), French bean leaf, mortality; settings: 72 h, 500 ppm, contact, 3 days, read-out: TUa grading of mortality
Experimental: as §1, §2, §3

[3] = test system: Nephotettix cincticeps (green leaf hopper - nymphs); assay: Contact test on green leaf hopper nymphs (NC), Rice plant, mortality; settings: 48 h, 500 ppm, contact, 2 days, read-out: NC grading of mortality
Experimental: as §1, §2, §3
NC Nephotettix cincticeps

[4] = test system: Spodoptera exigua (lesser army worm - larvae); assay: Residual test on lesser army worm larvae (SP), Cotton leaf, mortality; settings: 48 h, 500 ppm, residual, 2 days, read-out: SP grading of mortality
Experimental: as §1, §2, §3
(lesser army worm - larvae)

[5] = test system: Musca domestica (houseflies - adults); assay: Knockdown test on houseflies - adults (MD/KD), Cotton wool/sugar; settings: 500 ppm, 4 hours, read-out: MD/KD grading of knockdown
Experimental: as §1, §2
In the case of the species Musca domestica (housefly), additional tests to determine the knockdown effect of the compounds were performed. PG,163
as §3

[6] = test system: Heliothis virescens (tobacco budworm - larvae); assay: Residual test on tobacco budworm larvae (HV), Cotton leaf, mortality; settings: 48 h, read-out: HV grading of mortality
Experimental: as §1, §2, §3
(tobacco budworm - larvae)

Myzus persicae (aphids) = assay: Contact test on aphids (MP), Chinese Cabbage leaf, mortality; settings: 72 h, 500 ppm, contact, 3 days, read-out: MP grading of mortality
Experimental: as §1, §2, §3

[7] = test system: Blattella germanica (cockroach nymphs); assay: Contact test on cockroach nymphs (BG/C), Plastic pot, mortality; settings: 48 h, 500 ppm, contact, 2 days, read-out: BG/C grading of mortality
Experimental: as §1, §2, §3
BG/C Blattella germanica

[8] = test system: Tetranychus urticae (spider mites - ova); assay: Contact test on spider mites - ova (TUe), French bean leaf, mortality; settings: 144 h, 500 ppm, contact, 6 days, read-out: TUe grading of mortality
Experimental: as §1, §2, §3

[9] = test system: Musca domestica (houseflies - adults); assay: Contact test on houseflies - adults (MD), Cotton wool/sugar, mortality; settings: 72 h, 500 ppm, contact, 3 days, read-out: MD grading of mortality
Experimental: as §1, §2, §3

Structure (SMILES) | mortality at 500 ppm [1] | mortality at 500 ppm [2] | mortality at 500 ppm [3] | mortality at 500 ppm [4] | pest or weed control at 500 ppm [5] | mortality at 500 ppm [6] | mortality at 500 ppm (Myzus persicae (aphids)) | mortality at 500 ppm [7] | mortality at 500 ppm [8] | mortality at 500 ppm [9]
COCc1c(F)c(F)c(COC(=O)C(c2cnc(C3(C)CC3)nc2)C(C)(C)C)c(F)c1F (racemic) [Compound 139, 2,3,5,6-tetrafluoro-4-(methoxymethyl)benzyl (RS)-2-[2-(1-methylcyclopropyl)pyrimidin-5-yl]-3,3-dimethylbutanoate] | < 50% | 80 to 100% | 80 to 100% | 80 to 100% | 80 to 100% | 80 to 100% | 80 to 100% | 80 to 100% | < 50% | 80 to 100%
COCc1c(F)c(F)c(COC(=O)C(c2cnc(-c3ccccc3)nc2)C(C)(C)C)c(F)c1F (racemic) [Compound 161, 2,3,5,6-tetrafluoro-4-(methoxymethyl)benzyl (RS)-2-(2-phenylpyrimidin-5-yl)-3,3-dimethylbutanoate] | 50 to 79% | 80 to 100% | 80 to 100% | 80 to 100% | 80 to 100% | < 50% | 80 to 100% | 50 to 79% | 80 to 100% | 80 to 100%
CC(C)(C)c1ncc(C(C(=O)OCc2c(F)c(F)c(COCc3ccc(Cl)cc3)c(F)c2F)C(C)(C)C)cn1 (racemic) [Compound 163, 4-[(4-chlorobenzyloxy)methyl]-2,3,5,6-tetrafluorobenyl (RS)-2-[2-(1,1-dimethylethyl)pyrimidin-5-yl]-3,3-dimethylbutanoate] | < 50% | 80 to 100% | < 50% | 50 to 79% | < 50% | < 50% | < 50% | < 50% | < 50% | < 50%
CC(C)(C)c1ncc(C(C(=O)OCc2c(F)c(F)c(CO)c(F)c2F)C(C)(C)C)cn1 (racemic) [Compound 164, 4-(hydroxymethyl)-2,3,5,6-tetrafluorobenzyl (RS)-2-[2-(1,1-dimethylethyl)pyrimidin-5-yl]-3,3-dimethylbutanoate] | < 50% | 80 to 100% | < 50% | 80 to 100% | 80 to 100% | 50 to 79% | 50 to 79% | < 50% | < 50% | < 50%
CC(C)(C)OC(=O)COCc1c(F)c(F)c(COC(=O)C(c2cnc(C(C)(C)C)nc2)C(C)(C)C)c(F)c1F (racemic) [Compound 165, 4-[(1,1-dimethylethyl)oxycarbonylmethoxymethyl]-2,3,5,6-tetrafluorobenzyl (RS)-2-[2-(1,1-dimethylethyl]pyrimidin-5-yl]-3,3-dimethylbutanoate] | < 50% | < 50% | 50 to 79% | < 50% | < 50% | < 50% | < 50% | < 50% | < 50% | < 50%
CC(=O)OCc1c(F)c(F)c(COC(=O)C(c2cnc(C(C)(C)C)nc2)C(C)(C)C)c(F)c1F (racemic) [Compound 166, 2,3,5,6-tetrafluoro-4-(acetyloxymethyl)benzyl (RS)-2-[2-(1,1-dimethylethyl)pyrimidin-5-yl]-3,3-dimethylbutanoate] | 80 to 100% | 80 to 100% | 50 to 79% | 80 to 100% | < 50% | < 50% | 80 to 100% | < 50% | 80 to 100% | < 50%
CCCc1c(F)c(F)c(COC(=O)C(c2cnc(C(C)(C)C)nc2)C(C)(C)C)c(F)c1F (racemic) [Compound 168, 4-(n-propyl)-2,3,5,6-tetrafluorobenzyl (RS)-2-[2-(1,1-dimethylethyl)pyrimidin-5-yl]-3,3-dimethylbutanoate] | < 50% | 80 to 100% | 80 to 100% | 50 to 79% | < 50% | 50 to 79% | 80 to 100% | < 50% | 80 to 100% | < 50%
CSCc1c(F)c(F)c(COC(=O)C(c2cnc(C(C)(C)C)nc2)C(C)(C)C)c(F)c1F (racemic) [Compound 169, 4-(methylthiomethyl)-2,3,5,6-tetrafluorobenzyl (RS)-2-[2-(1,1-dimethylethyl)pyrimidin-5-yl]-3,3-dimethylbutanoate] | < 50% | 80 to 100% | 80 to 100% | 80 to 100% | 80 to 100% | < 50% | 80 to 100% | < 50% | 80 to 100% | 80 to 100%
CCOC(=O)c1c(F)c(F)c(COC(=O)C(c2cnc(C(C)(C)C)nc2)C(C)(C)C)c(F)c1F (racemic) [Compound 170] | < 50% | 80 to 100% | 50 to 79% | 80 to 100% | 50 to 79% | < 50% | < 50% | < 50% | < 50% | < 50%
CC(C)OC(=O)c1c(F)c(F)c(COC(=O)C(c2cnc(C(C)(C)C)nc2)C(C)(C)C)c(F)c1F (racemic) [Compound 171, 4-[(prop-2-yl)oxycarbonyl]-2,3,5,6-tetrafluorobenzyl (RS)-2-[2-(1,1-dimethylethyl)pyrimidin-5-yl]-3,3-dimethylbutanoate] | < 50% | 80 to 100% | < 50% | < 50% | < 50% | < 50% | < 50% | < 50% | < 50% | < 50%
CC(C)(C)C(=O)OCc1c(F)c(F)c(COC(=O)C(c2cnc(C(C)(C)C)nc2)C(C)(C)C)c(F)c1F (racemic) [Compound 172, 4-[(2,2-dimethylpropionyl)oxymethyl]-2,3,5,6-tetrafluorobenzyl (RS)-2-[2-(1,1-dimethylethyl)pyrimidin-5-yl]-3,3-dimethylbutanoate] | < 50% | 80 to 100% | < 50% | < 50% | < 50% | < 50% | 50 to 79% | < 50% | < 50% | < 50%
CC(C)C(=O)OCc1c(F)c(F)c(COC(=O)C(c2cnc(C(C)(C)C)nc2)C(C)(C)C)c(F)c1F (racemic) [Compound 173, 4-[(2-methylpropionyl)oxymethyl]-2,3,5,6-tetrafluorobenzyl (RS)-2-[2-(1,1-dimethylethyl)pyrimidin-5-yl]-3,3-dimethylbutanoate] | < 50% | 80 to 100% | 80 to 100% | 80 to 100% | < 50% | 80 to 100% | 80 to 100% | < 50% | < 50% | < 50%
